Assays:
neural stem cells = assay: Effect on proliferative activity of neural stem cells (BrdU incorporation); format: cell-based, rat; settings: 10 μM BrdU, cultivation for 24 hours under differentiation induction; n=6; P=0.02 vs control
Protocol: In the same way as Experimental Example 1, neural stem cells were divided into DHA group and control (DHA free) group, and 10 μM 5-bromo-2′-droxyuridine (BrdU; Sigma) was added under culture conditions for differentiation induction, followed by cultivation for 24 hours. Thereafter, the cells were treated with 2N HCl at 37° C. for 10 minutes and treated with 0.1 M borate buffer (Na2B4O7, pH 8.5) for 5 minutes. The cell were treated with anti-mouse BrdU antibody (1:1000 Chemicon) and then treated with FITC-labeled secondary antibody.
7 random fields per well were sampled, and the numbers of BrdU-positive cells were counted to calculate a ratio of the number of BrdU-positive cells to the number of total cells. The number of total cells was counted by PI staining. Statistical analysis was evaluated by student's t-test.

[1] = tested on: neural stem cells and cells differentiated from neural stem cells; assay: Effect on apoptosis of neural stem cells and cells differentiated from neural stem cells (pycnotic cells by PI staining, TUNEL); format: cell-based, rat; settings: cultivated under differentiation induction for 7 days; n=6; P=0.01 vs control
Protocol: In the same way as Experimental Example 1, neural stem cells were divided into DHA group and control (DHA free) group and cultivated under culture conditions for differentiation induction for 7 days, and pycnotic cells were evaluated by PI staining.
Apoptosis in the pycnotic cells were confirmed by TUNEL staining. The TUNEL staining was performed using Red In Situ Apoptosis Detection kit (Chemicon). Cells of the DHA group and the control group were cultivated for 7 days under the above-mentioned differentiation conditions and fixed with 4% paraformaldehyde, followed by incubation together with digoxigenin-dUTP in the presence of TdT at 37° C. for 1 hour. TUNEL-labeled cells were detected with Rhodamine conjugated anti-digoxigenin antibody and observed using confocal scanning laser microscopy.

[2] = tested on: adult rat hippocampal dentate gyrus; assay: Effect on neurogenesis in adult rat hippocampal dentate gyrus region (BrdU-NeuN double positive cells); format: in vivo; settings: 300 mg/kg/day gavaged for 7 weeks
Protocol: 18-week-old Wister male rats fed with a fish oil-free diet for three generations were used. To DHA group, 4,7,10,13,16,19-docosahexaenoate suspended in a 5% gum arabic solution was gavaged at 300 mg/kg/day every day for 7 weeks. To control group, in the same way as above, only a 5% gum arabic solution was gavaged in the same dose. From 2 weeks after initiation of oral administration, BrdU dissolved in PBS (−) was injected to rats intraperitoneally once a day for 5 days (50 mg/kg).
4 weeks after completion of BrdU administration, PBS (−) was perfused from the hearts of the rats, followed by fixation with 4% paraformaldehyde. The brains were isolated and fixed with paraformaldehyde for further 24 hours, followed by exchange for 25% sucrose. Coronal sections (40 μm) were cut by a microtome, and nuclei labeled with BrdU were detected by the following procedures. […]
Six sections were selected at intervals of 240 μm from the rostro caudal region of a granular cell layer in the whole dentate gyrus, and BrdU-NeuN double positive cells in the granular cell layer and subgranular zone (inside zone along the granular cell layer) were counted. […] The referential volume of the granular cell layer was calculated from the areas of the sampled sections.

CC/C=C\C/C=C\C/C=C\C/C=C\C/C=C\C/C=C\CCC(=O)O [DHA, docosahexaenoic acid]
ratio of BrdU-positive cells to the number of total cells (neural stem cells): 16.3±1.0% | ratio of the pycnotic cells to the number of total cells [1]: 54.3±3.7% | number of BrdU-NeuN double positive cells in the whole granular cell layer of the dentate gyrus compared to the control group ([2]; 18-week-old Wister male rats): 1.6 fold | average number of the BrdU-NeuN double positive cells in the respective sections ([2]; n=3, P=0.005 vs control): 878±72.3 cells

Reference: patent US20100254951A1, “Nerve Regeneration Promoting Agent” (MOCHIDA PHARMACEUTICAL CO., LTD., priority 2005, published 2010)
